Patent US6545002B1 (University of Virginia Patent Foundation, priority 1999, dated 2003)

Legend:
rat A2A receptors (rA2A) = biological target: T1, rat A2A receptors (rA2A) (Rattus norvegicus, UniProt P30543); assay: Displacement of [3H]CGS 21680 binding in rat striatal membranes; details: Table 2; read-out: rA2A Ki or IC50
T1 construct: to A2A receptors from rat striatal membranes was performed as described; from tissue; host or cells: rat striatal membranes

rat A1 receptors (rA1) = biological target: T2, rat A1 receptors (rA1) (Rattus norvegicus, UniProt P25099); assay: Displacement of [3H]R-PIA binding in rat brain (cerebral cortical) membranes; details: Table 2; read-out: rA1 Ki or IC50
T2 construct: to A1 receptors from rat cerebral cortical membranes; from tissue; host or cells: rat cerebral cortical (brain) membranes
T2 sequence (P25099 1-326): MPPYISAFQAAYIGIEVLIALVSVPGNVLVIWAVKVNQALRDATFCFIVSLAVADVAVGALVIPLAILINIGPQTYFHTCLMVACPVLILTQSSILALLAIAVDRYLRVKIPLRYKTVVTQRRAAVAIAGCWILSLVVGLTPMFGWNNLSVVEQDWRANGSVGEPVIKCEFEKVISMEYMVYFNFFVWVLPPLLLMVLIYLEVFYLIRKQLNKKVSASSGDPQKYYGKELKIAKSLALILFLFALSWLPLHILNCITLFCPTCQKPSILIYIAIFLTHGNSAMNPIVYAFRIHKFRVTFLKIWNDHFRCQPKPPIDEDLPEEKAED

[1] = system: myocardial infarction in dogs; assay: Ninety minute LAD coronary artery occlusion/reperfusion, infarct size by TTC staining; assay type: in vivo, dog; details: 200 nM intracoronary at 1 ml/min during occlusion and reperfusion, versus vehicle

T1 sequence (P30543 whole entry): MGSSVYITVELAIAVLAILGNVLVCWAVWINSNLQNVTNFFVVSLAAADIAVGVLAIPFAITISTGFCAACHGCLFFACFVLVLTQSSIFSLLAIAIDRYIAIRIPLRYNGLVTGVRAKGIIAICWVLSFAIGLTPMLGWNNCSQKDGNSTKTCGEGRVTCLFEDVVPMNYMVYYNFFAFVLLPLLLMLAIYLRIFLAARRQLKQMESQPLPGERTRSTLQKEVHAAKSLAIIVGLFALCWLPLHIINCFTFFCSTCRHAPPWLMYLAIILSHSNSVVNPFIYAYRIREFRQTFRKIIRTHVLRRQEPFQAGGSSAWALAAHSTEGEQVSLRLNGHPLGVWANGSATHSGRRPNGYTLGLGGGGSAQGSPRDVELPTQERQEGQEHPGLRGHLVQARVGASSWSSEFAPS

## CCCn1c(=O)c2[nH]c(-c3ccc(OCC(=O)Nc4ccc(C#N)cc4)cc3)nc2n(CCC)c1=O [Compound 27, 8-[4-[((4-Cyano)phenylcarbamoylmethyl)oxy]phenyl]-1,3-di-(n-propyl)xanthine]
Rat A2A receptors (rA2A)
  Ki: 612 ± 287 nM
Rat A1 receptors (rA1)
  Ki: 16.8 ± 3.6 nM
[1]
  infarct size / infarct area (IA) as %LV or %RA: significantly reduced the infarct area
